The values that follow are results of earlier work, collected in US8673971B2, “Derivatives of 4-nerolidylcatechol, pharmaceutical compositions comprising them and process for producing the same” (Instituto Nacional de Pesquisa de Amazonia INPA, priority 2007, dated 2014).

SMILES strings stand for the structures.

For data set [1] the following is noted: tests based on co-oxidation of substrate (β-carotene, linoleic acid); greater than α-tocoferol.

With `C=CC(C)(CCC=C(C)CCC=C(C)C)c1ccc(O)c(O)c1` (centres unmarked) [4-nerolidylcatechol], the water solubility entry is reported as “low water solubility”. The “in vitro antioxidant activity relative to α-tocoferol” value in data set [1] is given as 20 times.
